Assay results reported in US12599133B2, “Use of trifluenfuronate for prevention and treatment of agricultural pest insects and mites” (SHANDONG UNITED PESTICIDE INDUSTRY CO., LTD., priority 2020, dated 2026).
≈ marks a conversion by molar mass, not a printed value. Read-outs that look alike come from different tables or passages of the source.

What was measured:
[1] = tested on: Panonychus citri Adult female mite; assay: Oviposition inhibitory activity determination trial; format: in vivo; conditions: 144 h, read-out: 6-day oviposition inhibition rate; for inhibition at 1 µg/mL: trial concentration 1 mg/L; for inhibition at 5 µg/mL: trial concentration 5 mg/L
Protocol: (§1) Oviposition inhibitory activity determination trial: A mother solution of the technical material with a mass concentration of 1 wt % was prepared with acetone for later use, and diluted with deionized water comprising 0.1 wt % Tween 80 to a series of trial concentrations. Fresh leaves of cowpea seedlings were selected and cut into round leaf disks with a diameter of about 5.0 cm. The leaf disks were placed in a plastic Petri dish with filter paper and degreased cotton spread in it. 5 mg/L and 10 mg/L treatment agents were applied to the back of the leaves with cotton swabs. An aqueous solution with the same solvent proportion was used as a control agent. After the agent liquid was naturally evaporated under indoor conditions, about 20 female adult mites aged 3-5 days were inoculated onto each leaf. Each treatment was repeated 5 times, about 100 mites were treated The mites were kept in the same conditions, and observed under a binocular dissecting microscope every 24 h over 6 consecutive days, and the number of laid eggs was recorded for each treatment. After the trial ended, the oviposition inhibition rate was calculated for each treatment.

[2] = tested on: Tetranychus viennensis Adult female mite; assay: as above; format: in vivo; conditions: 144 h, read-out: 6-day oviposition inhibition rate; for inhibition at 1 µg/mL: trial concentration 1 mg/L; for inhibition at 5 µg/mL: trial concentration 5 mg/L
Protocol: as §1

[3] = tested on: Tetranychus urticae Adult female mite; assay: as above; format: in vivo; conditions: 144 h, read-out: 6-day oviposition inhibition rate; for inhibition at 1 µg/mL: trial concentration 1 mg/L; for inhibition at 5 µg/mL: trial concentration 5 mg/L
Protocol: as §1

[4] = tested on: Tetranychus cinnabarinus Adult female mite; assay: as above; format: in vivo; conditions: 144 h, read-out: 6-day oviposition inhibition rate; for inhibition at 1 µg/mL: trial concentration 1 mg/L; for inhibition at 5 µg/mL: trial concentration 5 mg/L
Protocol: as §1

[5] = tested on: Tetranychus cinnabarinus eggs; assay: Toxicity to Tetranychus cinnabarinus eggs in different areas; format: in vivo; conditions: for LC50: Tetranychus cinnabarinus
Protocol: (§2) Mite egg hatching inhibitory activity determination trial: The trial was carried out using a leaf-immersing method. A mother solution of the technical material with a mass concentration of 1 wt % was prepared with acetone for later use, and diluted with deionized water comprising 0.1 wt % Tween 80 to a series of trial concentrations. A 1.2% aqueous agar was poured into a Petri dish with a diameter of 9 cm and cooled for later use. Twenty adult mites were selected and inoculated onto pepper leaves. After 2 days, the adult mites were removed, and the number of mite eggs is counted. The leaves with eggs were immersed in the prepared agent liquid for 10 s and then taken out. The leaves were placed in a Petri dish and moisturized. Each treatment was repeated 3 times. A 0.1 wt % aqueous solution of Tween 80 was used to set up a blank control. These treatments were placed in a biochemical incubator at 24±1° C. After mite eggs of the blank control group hatched, the trial results were checked, and the hatchability rate was calculated.
The procedure was the same as above except that the assay for toxicity to Tetranychus cinnabarinus eggs was carried out in different areas.

[6] = tested on: Tetranychus viennensis egg; assay: Mite egg hatching inhibitory activity (toxicity to mite eggs), leaf-immersing method; format: in vivo
Protocol: as §2

[7] = tested on: Tetranychus cinnabarinus egg; assay: as above; format: in vivo
Protocol: as §2

Tetranychus urticae egg = assay: as above; format: in vivo
Protocol: as §2

Panonychus citri egg = assay: as above; format: in vivo
Protocol: as §2

Diamondback moth egg = assay: Egg hatchability inhibition, leaf-immersing method; format: in vivo, Plutella xylostella (Linnaeus); conditions: Plutella xylostella, read-out: Hatchability inhibition
Protocol: (§3) Diamondback moth egg: The trial was carried out using a leaf-immersing method. A mother solution of the technical material with a mass concentration of 1 wt % was prepared with acetone, and diluted with deionized water comprising 0.1 wt % Tween 80 to trial concentrations for later use. 1.2% agar was poured into a Petri dish with a diameter of 9 cm and cooled for later use. Two-leaf one-core radish seedlings were placed in the Petri dish when adult diamondback moths were at the great oviposition phase. After 1 day, the […] seedlings were taken out. Radish seedlings with 20-30 eggs in it were selected and immersed in the agent liquid for 10 s and then taken out, and the radish seedlings were placed in a Petri dish and moisturized. Each treatment was repeated 3 times. A 0.1 wt % aqueous solution of Tween 80 was used to set up a blank control, and the blank control was placed in an insect-raising chamber at 25° C. After larvae of the blank control group hatched, the trial results were checked, and the hatchability was calculated.

Maize armyworm egg = assay: Egg hatchability inhibition, leaf-immersing method; format: in vivo, Mythimna separate (Walker); conditions: read-out: Hatchability inhibition
Protocol: as §3, with “Maize armyworm egg: The” for “Diamondback moth egg: The”, “Two-leaf one-core corn seedlings were” for “Two-leaf one-core radish seedlings were”, “when adult maize armyworms were at” for “when adult diamondback moths were at”, “taken out. Corn seedlings with” for “taken out. Radish seedlings with”, “and the corn seedlings were” for “and the radish seedlings were”

Bradysia odoriphaga egg = assay: Egg toxicity, agent liquid quantitative dropwise addition method; format: in vivo; conditions: 120 h, read-out: Hatchability inhibition
Protocol: Bradysia odoriphaga egg: The trial was carried out by using an agent liquid quantitative dropwise addition method. A mother solution of the technical material with a mass concentration of 1 wt % was prepared with acetone for later use, and a series of trial concentrations were prepared using a 0.1 wt % aqueous solution of Tween 80. Bradysia odoriphaga eggs aged 2 days were picked up. Each treatment unit comprised 20 eggs. The eggs were placed in a Petri dish with a diameter of 9 cm with filter paper spread in it. 600 μL of agent liquid was dropwise added with a pipette onto the eggs, and 600 μL of agent liquid onto the filter paper. Each treatment was repeated 3 times. A 0.1 wt % aqueous solution of Tween 80 was used to set up a blank control, and the blank control was placed in a biochemical incubator at 24±1° C. after treatment. Five days after application, the trial results were checked.

Bemisia tabaci egg = assay: Egg hatching inhibition, potting spray method; format: in vivo; conditions: read-out: Hatchability inhibition
Protocol: Bemisia tabaci egg: A potting spray method was adopted. A mother solution of the technical material with a mass concentration of 1 wt % was prepared with acetone for later use, and a series of trial concentrations were prepared using a 0.1 wt % aqueous solution of Tween 80. Potted pepper plants growing at the same pace were selected. Every 6 potted pepper plants were counted as a treatment unit and placed in an insect-raising cage. About 500 silverleaf whiteflies were inoculated into each insect-raising cage and normally kept for 2 days, and then the adults were removed. After the agent was prepared, it was used to spray the pepper plants. After the spraying, the plants were placed in the insect-raising cages. A 0.1 wt % aqueous solution of Tween 80 was used to set up a blank control, and the blank control was placed in an insect-raising chamber at 25° C. After […] nymphs of the blank control group hatched, the number of nymphs in each treatment unit was counted, and the hatching inhibition rate was calculated.

| Compound | inhibition at 1 µg/mL [1] | inhibition at 5 µg/mL [1] | inhibition at 1 µg/mL [2] | inhibition at 5 µg/mL [2] | inhibition at 1 µg/mL [3] | inhibition at 5 µg/mL [3] | inhibition at 1 µg/mL [4] | inhibition at 5 µg/mL [4] | LC50 ([5]; area Fangcun, Taian) | LC50 ([5]; area Jiyang, Jinan) | LC50 ([5]; area Qihe, Dezhou) | LC50 ([5]; area Shouguang, Weifang) | LC90 ([5]; area Fangcun, Taian) | LC90 ([5]; area Jiyang, Jinan) | LC90 ([5]; area Qihe, Dezhou) | LC90 ([5]; area Shouguang, Weifang) | LC50 [6] | LC90 [6] | LC50 [7] | LC90 [7] | also measured |
| --- | --- | --- | --- | --- | --- | --- | --- | --- | --- | --- | --- | --- | --- | --- | --- | --- | --- | --- | --- | --- | --- |
| CCOc1cc(C(C)(C)C)ccc1C1COC(c2c(F)cccc2F)=N1 (stereo not shown) [Etoxazole] | 37.6% | 65.4% | 27% | 60.8% | 35.9% | 69.2% | 35.7% | 66.8% | 15.4 µg/mL (≈ 42.8 µM) | 5.37 µg/mL (≈ 14.9 µM) | 26 µg/mL (≈ 72.3 µM) | 7.21 µg/mL (≈ 20.1 µM) | 168.95 µg/mL (≈ 470 µM) | 62.95 µg/mL (≈ 175 µM) | 162.82 µg/mL (≈ 453 µM) | 69.57 µg/mL (≈ 194 µM) | 17.6 µg/mL (≈ 49 µM) | 88.51 µg/mL (≈ 246 µM) | 18.5 µg/mL (≈ 51.6 µM) | 124.23 µg/mL (≈ 346 µM) | LC50 (Tetranychus urticae egg): 17.8 µg/mL (≈ 49.5 µM); LC90 (Tetranychus urticae egg): 135.01 µg/mL (≈ 376 µM); LC50 (Panonychus citri egg): 21.6 µg/mL (≈ 60 µM); LC90 (Panonychus citri egg): 123.59 µg/mL (≈ 344 µM) |
| O=C(NC(=O)c1c(F)cccc1F)Nc1cc(Cl)c(OC(F)(F)C(F)C(F)(F)F)cc1Cl (stereo not shown) [Lufenuron] | – | – | – | – | – | – | – | – | – | – | – | – | – | – | – | – | – | – | – | – | inhibition at 5 µg/mL (Diamondback moth egg; Diamondback moth egg, trial concentration 5 mg/L): 59.1%; inhibition at 20 µg/mL (Diamondback moth egg; Diamondback moth egg, trial concentration 20 mg/L): 75%; inhibition at 5 µg/mL (Maize armyworm egg; Maize armyworm egg, trial concentration 5 mg/L): 22.6%; inhibition at 20 µg/mL (Maize armyworm egg; Maize armyworm egg, trial concentration 20 mg/L): 58.4% |
| CC(COc1ccc(Oc2ccccc2)cc1)Oc1ccccn1 (stereo not shown) [Pyriproxyfen] | – | – | – | – | – | – | – | – | – | – | – | – | – | – | – | – | – | – | – | – | inhibition at 50 µg/mL (Bradysia odoriphaga egg; Bradysia odoriphaga egg, trial concentration 50 mg/L, five days after application): 42.4%; inhibition at 100 µg/mL (Bradysia odoriphaga egg; Bradysia odoriphaga egg, trial concentration 100 mg/L, five days after application): 61.6%; inhibition at 5 µg/mL (Bemisia tabaci egg; Bemisia tabaci egg, trial concentration 5 mg/L): 43.7%; inhibition at 20 µg/mL (Bemisia tabaci egg; Bemisia tabaci egg, trial concentration 20 mg/L): 86.8% |
| COc1ccccc1C1OC(=O)CC1C(=O)OCCC(F)=C(F)F (stereo not shown) [Trifluenfuronate, trifluenfuronate] | 51% | 77.8% | 48.7% | 75.3% | 50.4% | 77% | 47.3% | 77.7% | 3.89 µg/mL (≈ 11.3 µM) | 3.92 µg/mL (≈ 11.4 µM) | 3.79 µg/mL (≈ 11 µM) | 4.11 µg/mL (≈ 11.9 µM) | 21.95 µg/mL (≈ 63.8 µM) | 20.94 µg/mL (≈ 60.8 µM) | 15.62 µg/mL (≈ 45.4 µM) | 19.37 µg/mL (≈ 56.3 µM) | 3.66 µg/mL (≈ 10.6 µM) | 12.44 µg/mL (≈ 36.1 µM) | 4.12 µg/mL (≈ 12 µM) | 20.77 µg/mL (≈ 60.3 µM) | inhibition at 5 µg/mL (Bradysia odoriphaga egg; Bradysia odoriphaga): 81.3%; inhibition at 20 µg/mL (Bradysia odoriphaga egg; Bradysia odoriphaga): 95.3%; inhibition at 5 µg/mL (Diamondback moth egg): 73.6%; inhibition at 20 µg/mL (Diamondback moth egg): 88.3%; inhibition at 5 µg/mL (Bemisia tabaci egg; Bemisia tabaci): 83.3%; inhibition at 20 µg/mL (Bemisia tabaci egg; Bemisia tabaci): 98.7%; LC50 (Tetranychus urticae egg): 3.69 µg/mL (≈ 10.7 µM); LC90 (Tetranychus urticae egg): 18.01 µg/mL (≈ 52.3 µM); LC50 (Panonychus citri egg): 3.28 µg/mL (≈ 9.53 µM); LC90 (Panonychus citri egg): 17.97 µg/mL (≈ 52.2 µM); inhibition at 5 µg/mL (Maize armyworm egg): 83.7%; inhibition at 20 µg/mL (Maize armyworm egg): 92.3% |
